{"source": "paper PMC6934184", "about": "“Selective DNA-PKcs inhibition extends the therapeutic index of localized radiotherapy and chemotherapy” (The Journal of Clinical Investigation, 2019)", "molecular_target": "T1, LRRK2 I2020T (Homo sapiens, UniProt Q5S007, I2020T)", "T1 construct": "purchased Thermo Fisher Scientific (Life Technologies) SelectScreen", "T1 sequence (Q5S007 whole entry I2020T)": "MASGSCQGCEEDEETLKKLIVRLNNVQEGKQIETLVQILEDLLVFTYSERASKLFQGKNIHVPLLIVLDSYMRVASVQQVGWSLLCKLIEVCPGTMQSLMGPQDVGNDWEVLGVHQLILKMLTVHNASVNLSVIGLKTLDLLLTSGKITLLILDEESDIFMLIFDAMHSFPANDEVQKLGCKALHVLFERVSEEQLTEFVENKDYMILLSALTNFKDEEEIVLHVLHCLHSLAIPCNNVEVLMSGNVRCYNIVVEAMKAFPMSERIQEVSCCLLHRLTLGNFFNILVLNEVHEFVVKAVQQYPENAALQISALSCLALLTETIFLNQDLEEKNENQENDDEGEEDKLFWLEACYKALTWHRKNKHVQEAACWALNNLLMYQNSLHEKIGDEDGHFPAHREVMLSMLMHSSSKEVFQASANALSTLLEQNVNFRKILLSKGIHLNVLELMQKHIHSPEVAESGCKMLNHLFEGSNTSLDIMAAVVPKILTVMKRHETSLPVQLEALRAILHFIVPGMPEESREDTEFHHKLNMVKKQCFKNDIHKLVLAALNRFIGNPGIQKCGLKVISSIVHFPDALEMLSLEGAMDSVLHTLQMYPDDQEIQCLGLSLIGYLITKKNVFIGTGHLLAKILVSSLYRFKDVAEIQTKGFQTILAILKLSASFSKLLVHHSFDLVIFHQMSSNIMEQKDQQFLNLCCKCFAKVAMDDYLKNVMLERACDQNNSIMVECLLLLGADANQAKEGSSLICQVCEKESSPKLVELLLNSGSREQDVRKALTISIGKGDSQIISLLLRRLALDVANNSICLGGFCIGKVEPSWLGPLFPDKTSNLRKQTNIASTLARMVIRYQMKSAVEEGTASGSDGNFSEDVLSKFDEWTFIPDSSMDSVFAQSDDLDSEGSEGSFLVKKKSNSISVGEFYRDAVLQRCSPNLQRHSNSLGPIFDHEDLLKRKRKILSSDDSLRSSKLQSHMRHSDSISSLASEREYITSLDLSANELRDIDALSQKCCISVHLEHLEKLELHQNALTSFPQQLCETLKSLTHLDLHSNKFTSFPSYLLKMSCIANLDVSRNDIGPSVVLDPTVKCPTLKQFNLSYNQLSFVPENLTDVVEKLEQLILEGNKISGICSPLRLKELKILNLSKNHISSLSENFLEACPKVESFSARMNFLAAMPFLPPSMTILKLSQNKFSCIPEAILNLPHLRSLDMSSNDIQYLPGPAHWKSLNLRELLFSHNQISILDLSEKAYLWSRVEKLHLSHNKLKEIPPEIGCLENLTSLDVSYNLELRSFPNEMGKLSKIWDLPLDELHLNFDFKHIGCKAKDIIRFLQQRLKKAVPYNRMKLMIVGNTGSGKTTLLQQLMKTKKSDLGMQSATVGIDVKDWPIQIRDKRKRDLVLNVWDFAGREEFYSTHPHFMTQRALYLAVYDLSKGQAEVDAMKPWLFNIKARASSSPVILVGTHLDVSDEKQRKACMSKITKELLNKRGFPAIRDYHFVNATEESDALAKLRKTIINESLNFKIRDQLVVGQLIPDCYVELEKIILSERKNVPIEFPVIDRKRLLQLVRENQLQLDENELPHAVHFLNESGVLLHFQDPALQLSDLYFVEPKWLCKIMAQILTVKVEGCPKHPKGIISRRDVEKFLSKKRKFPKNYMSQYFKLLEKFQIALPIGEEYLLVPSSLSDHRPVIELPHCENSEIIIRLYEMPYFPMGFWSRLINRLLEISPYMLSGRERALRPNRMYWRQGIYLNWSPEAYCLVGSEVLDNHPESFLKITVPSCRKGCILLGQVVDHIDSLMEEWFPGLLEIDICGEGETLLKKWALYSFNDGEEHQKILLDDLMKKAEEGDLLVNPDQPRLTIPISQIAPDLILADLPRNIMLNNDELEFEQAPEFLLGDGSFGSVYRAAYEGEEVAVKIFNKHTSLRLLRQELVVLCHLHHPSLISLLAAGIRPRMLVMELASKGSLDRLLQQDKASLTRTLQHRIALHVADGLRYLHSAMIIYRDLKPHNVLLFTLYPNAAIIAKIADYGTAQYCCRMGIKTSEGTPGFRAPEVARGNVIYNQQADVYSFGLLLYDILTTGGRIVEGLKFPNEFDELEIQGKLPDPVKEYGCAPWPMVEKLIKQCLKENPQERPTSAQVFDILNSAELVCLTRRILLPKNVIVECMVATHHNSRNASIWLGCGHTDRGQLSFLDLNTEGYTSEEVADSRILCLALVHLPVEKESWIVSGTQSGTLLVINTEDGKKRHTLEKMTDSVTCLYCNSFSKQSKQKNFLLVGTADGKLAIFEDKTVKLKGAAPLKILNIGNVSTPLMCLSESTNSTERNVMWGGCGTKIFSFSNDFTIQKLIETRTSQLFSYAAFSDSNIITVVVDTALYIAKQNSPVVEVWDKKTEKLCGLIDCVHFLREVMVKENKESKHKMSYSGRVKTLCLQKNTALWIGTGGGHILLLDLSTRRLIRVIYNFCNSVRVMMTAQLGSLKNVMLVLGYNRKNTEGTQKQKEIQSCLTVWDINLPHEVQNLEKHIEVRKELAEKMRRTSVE", "experiment": "SelectScreen Adapta", "assay_type": "biochemical", "in_short": "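NU5455 was profiled across the SelectScreen Broad panel of kinase activity and binding assays. Z'LYTE reactions such as CSF1R ran at apparent Km ATP, while the Adapta CAMK1 assay used ATP listed as 10. Values are given as percent.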"}
{"compound": "CN(C(=O)CN1CCOCC1)c1ccc2sc3c(-c4cccc5c(=O)cc(N6CC7CCC(C6)O7)oc45)cccc3c2c1", "note": "[NU5455]", "values": [{"measurement": "inhibition at 1 µM", "value": -4, "unit": "%"}]}
